We go through five compounds from PMC8710804, “Stapled Anoplin as an Antibacterial Agent” (Frontiers in Microbiology, 2021).

“And” between values parts separate entries of the source, which are not always exact repeats. Equal values may be shown once. Where a SMILES comes first, the peptide text is derived from it. Bridges are numbered along the chain shown (N, C = ends). Where no end group is shown, it is not given here. [ ]: non-standard residue; d: D form. S5 = C=CCCC[C@](C)(N)C(=O)O

For series [1], the system named is sheep red blood cells. Briefly: Hemolysis assay. The following applies: sheep RBC in PBS pH 7.4, 37°C, 30 min, absorbance 405 nm, relative to 1% Triton-X-100, average of three independent measurements. Format: cell-based. The protocol: Sheep RBC (200 μl) were pelleted (3,500 rpm for 5 min), washed three times with PBS buffer (PBS 10 mM and 150 mM NaCl, pH 7.4). The cells were then diluted in PBS buffer (10 ml), divided into 50 parts into 1.5 ml tubes, and pelleted by centrifugation. Various concentrations of peptide solutions (200 μl) were added to the cells and incubated with shaking (165 rpm, 37°C) for 30 min. The cells were pelleted by centrifugation (3,500 rpm for 5 min). Then, 100 μl of supernatant from each tube was collected into a clear 96-well plate, and the absorbance of the released hemoglobin was measured with a plate reader spectrophotometer (Microplate Reader Biotek, Winooski, VT, United States) at 405 nm. Hemolysis was determined relative to the negative control (PBS) and the positive control (1% v/v Triton-X-100 that lyses 100% of RBC). The percentage of hemolysis was determined using the following equation:
where A0 is the absorbance intensity of the RBC in buffer (background), and A and A100 are the absorbance intensities of the RBS in the presence of peptides and Triton X-100, respectively.The tests were performed with duplicate samples, and the average values of three independent measurements were recorded.

In series [2] the test system is HEK 293 cells. The series can be described thus: DAPI staining, confocal microscopy of cell morphology. It is filed as cell-based, human. Particulars: HEK 293, 24 h, 64 μM of anoplin, 8–32 μM of derivatives (32 μM of anoplin[2-6]), confocal microscope. The method, then: 1 × 10^5 cells were seeded into coverslips and incubated for 24 h. The cells were then treated with anoplin (64 μM) or its derivatives (8–32 μM) for 24 h. Next, cells were washed with PBS and fixed in 4% PFA for 15 min at room temperature. After three washes with PBS, cells were stained with DAPI (4′,6-diamidino-2-phenylindole, dihydrochloride; Boster) for 5 min (as indicated in the instruction). Coverslips with cells were washed three times and mounted on a glass microscope slide using a Dako Fluorescence Mounting Medium. Images were acquired with Axio Imager Z2 LSM 700 Zeiss confocal microscope.

Series [3] concerns trypsin. Briefly: Trypsin digestion assay. It is filed as in vitro ADME. Particulars: trypsin:peptide 1:1333, 0.1 M NH4HCO3 pH 8.0, 37°C, RP-HPLC peak area, performed thrice; for stability against trypsin (comparison in words): up to 8 min. The method, then: 250 μl of peptide solution in ammonium bicarbonate buffer (0.1 M NH4HCO3, pH 8.0) and an appropriate amount of trypsin (Sigma-Aldrich) solution in water were incubated at 37°C with rapid shaking (600 rpm). Trypsin and peptides were mixed in the ratio (1:1333; [Luong et al., 2017b]). After 2, 4, 6, and 8 min of incubation, 60 μl of digestion mixture was taken and treated with 60 μl of a solution of 50% acetonitrile containing 1% TFA to stop the digestion. Peptide degradation was analyzed with RP-HPLC using analytical methods to assess peptide purity (see subsection Synthesis of stapled anoplins). The results were calculated as the percentage of peptide peak of area degradation. The total area of every peak was designated for experiments without trypsin. Each of the experiments was performed thrice.

In series [4] the test system is E. coli K12 MG1655. Particulars: cation-adjusted MHB, ~5 × 10^5 CFU/ml, 37°C, 19 h + 1 h resazurin, OD600, at least three replicates for peptides, one for antibiotics.
Series [5] has as its system E. coli O157:H7. The following applies: cation-adjusted MHB, ~5 × 10^5 CFU/ml, 37°C, 19 h + 1 h resazurin, OD600, at least three replicates for peptides, one for antibiotics.
Series [6] deals with E. coli 1841/06 ESBL+. Particulars: cation-adjusted MHB, ~5 × 10^5 CFU/ml, 37°C, 19 h + 1 h resazurin, OD600, at least three replicates for peptides, one for antibiotics. On the technique in general: The colour change of resazurin is a common sign of viable cells or microbes.
The test system of series [7] is E. coli WR 3551/98 ESBL+. Particulars: cation-adjusted MHB, ~5 × 10^5 CFU/ml, 37°C, 19 h + 1 h resazurin, OD600, at least three replicates for peptides, one for antibiotics.
The subject of series [8] is P. aeruginosa PAO1. The following applies: cation-adjusted MHB, ~5 × 10^5 CFU/ml, 37°C, 19 h + 1 h resazurin, OD600, at least three replicates for peptides, one for antibiotics.
Series [9] deals with P. aeruginosa ATCC 27853. The following applies: cation-adjusted MHB, ~5 × 10^5 CFU/ml, 37°C, 19 h + 1 h resazurin, OD600, at least three replicates for peptides, one for antibiotics.
For series [10], the system named is S. typhimurium LT2. The following applies: cation-adjusted MHB, ~5 × 10^5 CFU/ml, 37°C, 19 h + 1 h resazurin, OD600, at least three replicates for peptides, one for antibiotics.
Series [11] deals with S. aureus ATCC 29213. Particulars: cation-adjusted MHB, ~5 × 10^5 CFU/ml, 37°C, 19 h + 1 h resazurin, OD600, at least three replicates for peptides, one for antibiotics.
For series [12], the system named is S. aureus ATCC BAA1720 MRSA. Particulars: cation-adjusted MHB, ~5 × 10^5 CFU/ml, 37°C, 19 h + 1 h resazurin, OD600, at least three replicates for peptides, one for antibiotics.
Series [13] relates to B. subtilis 168. Particulars: cation-adjusted MHB, ~5 × 10^5 CFU/ml, 37°C, 19 h + 1 h resazurin, OD600, at least three replicates for peptides, one for antibiotics.
Series [14] has as its system HEK 293 cells. Briefly: Cytotoxicity assay (MTT). Format: cell-based, human. Particulars: n = 3. The method, then: The HEK 293 cells were seeded at a density 2 × 10^4 per well on a 96-well plate and incubated in high glucose DMEM medium (Lonza) supplemented with 10% FBS and 50 U/ml of penicillin–streptomycin at 37°C in 5% CO2. After 24 h, cells were covered with a fresh medium containing tested peptides at different concentrations (4, 8, 16, and 32 μM). After 24 or 48 h of incubation, cells viability was tested using MTT [3-(4,5-dimethylthiazol-2-yl)-2,5-diphenyltetrazolium bromide] (Merck). Briefly, 10 μl of 5 mg/ml MTT was added to each well and incubated for 4 h. Formazan produced from MTT was solubilized during overnight incubation in 100 μl of 10% SDS in 0.01 M HCl. Absorbance at 590 nm was measured using Microplate Reader Biotek (Winooski, VT, United States). The experiment was performed in triplicates.

`C=CCCC[C@](C)(NC(=O)[C@H](CCCCN)NC(=O)[C@H](CC(C)C)NC(=O)[C@H](CC(C)C)NC(=O)CN)C(=O)N[C@H](C(=O)N[C@@H](CCCCN)C(=O)N[C@H](C(=O)N[C@@](C)(CCCC=C)C(=O)N[C@@H](CC(C)C)C(N)=O)[C@@H](C)O)[C@@H](C)CC` [anoplinS5(5,9)] (H-GLLK[S5]IKT[S5]L-NH2): the Hemolytic activity in series [1] (4 μM peptide) was determined as 6.7%; in [1] (8 μM peptide) it was 7.2%; in series [1] (16 μM peptide), 8.9%; in [1] (32 μM peptide), 11.9%; in series [1] (64 μM peptide) it was 14.2%. Besides, in series [2], the morphology of cells result was “altered cell appearance and the presence of cellular debris”. The “stability against trypsin (comparison in words)” value is listed as “significantly higher stability against trypsin” in [3] and “highest enzymatic resistance” in series [3] (listed as S5(5-9) peptide). For the same compound, the MIC (commonly the lowest concentration that inhibits growth of the organism) in [4] is 64 µM; in [5], 32 µM; in series [6], 32 µM; in series [7] it was 64 µM; in series [8], 64 µM; in series [9], no less than 64 µM. For the same compound, the MIC in series [10] is no less than 64 µM; in series [11], 8 µM; in series [12] it was 8 µM; in series [13], 8 µM.

Consider `NC[C@H]1O[C@H](O[C@H]2[C@H](O)[C@@H](O[C@H]3O[C@H](CO)[C@@H](O)[C@H](N)[C@H]3O)[C@H](N)C[C@@H]2N)[C@H](O)[C@@H](O)[C@@H]1O` [kanamycin], for which the MIC in [4] is 8 µM; in series [5], 2 µM; in [6], no less than 64 µM; in series [7], no less than 64 µM; in series [8], no less than 64 µM; in series [9] it was no less than 64 µM. For the same compound, the MIC in series [10] was no less than 64 µM; in series [11], 4 µM; in [12], no less than 64 µM; in series [13], 0.25 µM.

For the compound GLLKRIKTLL-NH2 [anoplin], the Hemolytic activity is 0.5% in series [1] (4 μM peptide); 1.3% in [1] (8 μM peptide); 0.7% in series [1] (16 μM peptide); 4% and 0.6% in series [1] (32 μM peptide); 2.3% in series [1] (64 μM peptide). The “effect on cell viability compared to untreated control cells” value in series [14] (HEK 293, 4-32 μM peptide, 24 and 48 h of treatment) is reported as “no significant effect on cell viability”. Besides, in series [2], the morphology of cells result is reported as “not altered”. Also, in series [3] (600 rpm, sampled at 2, 4, 6, 8 min), the “time of incubation with trypsin to complete decay of the peptide peak” value lay within 4 to 6 min. In addition, the MIC in series [4] is 32 µM; in series [5], 64 µM; in series [6], 64 µM; in series [7] it was 64 µM; in [8] it was 16 µM; in series [9], 32 µM. Moreover, the MIC is 64 µM in series [10], no less than 64 µM in series [11], no less than 64 µM in series [12] and 16 µM in [13].

Take `CC[C@H](C)[C@@H]1NC(=O)[C@@](C)(NC(=O)[C@H](CCCCN)NC(=O)[C@H](CC(C)C)NC(=O)[C@H](CC(C)C)NC(=O)CN)CCCC=CCCC[C@@](C)(C(=O)N[C@@H](CC(C)C)C(N)=O)NC(=O)[C@H]([C@@H](C)O)NC(=O)[C@H](CCCCN)NC1=O` [anoplin[5-9]] (H-GLLK[S5]IKT[S5]L-NH2; staple 5-9): the Hemolytic activity is 6.5% in [1] (4 μM peptide); 16.6% in series [1] (8 μM peptide); 29.8% in series [1] (16 μM peptide); 43.2% in series [1] (32 μM peptide, listed as Anoplin[5-9]); 43% in series [1] (32 μM peptide, listed as anoplin [5-9]); 62.7% in series [1] (64 μM peptide). Moreover, the dead cells entry in [14] (HEK 293, 16 μM peptide) is reported as “approximately 60%”. The “effect on living cells” value in series [14] (HEK 293, 32 μM peptide) was “nearly eliminated all living cells”. For the same compound, the morphology of cells result in series [2] is “altered cell appearance and the presence of cellular debris”. In addition, the “stability against trypsin (comparison in words)” value in series [3] is “significantly higher stability against trypsin”. In addition, the MIC amounted to 16 µM in series [4]; 8 µM in series [5]; 8 µM in series [6]; 16 µM in [7]; 16 µM in series [8]; 32 µM in series [9]. Also, the MIC in series [10] was 32 µM; in series [11], 4 µM; in series [12], 4 µM; in series [13] it was 4 µM.

As to polymyxin B, the MIC in series [4] was 0.25 µM; in [5], 0.5 µM; in series [6], 0.25 µM; in [7] it was 0.5 µM; in series [8] it was 0.5 µM; in series [9], 0.25 µM. Besides, the MIC is 0.5 µM in series [10], no less than 64 µM in series [11], no less than 64 µM in series [12] and 2 µM in series [13].
